Molecules are shown by their SMILES.

Series [1] concerns GST (glutathione S-transferase). The experiment in a line: Inhibition of Schistosoma japonicum C-terminal His6-tagged GST expressed in Escherichia coli BL21(DE3) assessed as reduction in GSH transfer activity by measuring residual activity at 10 mM using GSH/CDNB co-substrate mixture preincubated for 10 mins followed by substrate addition by colorimetric method relative to control. The conditions noted are these: probe GSH/CDNB co-substrate mixture, read-out: Activity.

The test system is the same in series [2]. Put plainly: Inhibition of Schistosoma japonicum C-terminal His6-tagged GST expressed in Escherichia coli BL21(DE3) assessed as reduction in GSH transfer activity by measuring residual activity at 150 uM using GSH/CDNB co-substrate mixture preincubated for 10 mins followed by substrate addition by colorimetric method relative to control. The note with it: probe GSH/CDNB co-substrate mixture, read-out: Activity.

On to `Nc1ccc(C(=O)O)cc1` [AMINOBENZOIC ACID], for which the activity at 10000 µM in series [1] amounted to 33%.
For `N[C@@](CF)(Cc1cnc[nH]1)C(=O)O`, the activity at 150 µM in series [2] came to 57%.

For the origin of these results see ChEMBL document CHEMBL3997833, “Efficient synthesis of α-fluoromethylhistidine di-hydrochloride and demonstration of its efficacy as a glutathione S-transferase inhibitor” (Bioorg Med Chem Lett, 2017).
